Reference: patent US8957056B2, “Migrastatin analogs in the treatment of cancer” (Sloan-Kettering Instiute for Cancer Research, priority 2004, dated 2015)
Where two headings read alike, the source gives them in different places.

Tests used:
mouse 4T1 cell = mouse 4T1 cell proliferation; previously reported (WO 2004/087672); cited from earlier work
[1] = Chamber cell migration assay, preliminary (Table 3); assay type: cell-based; conditions: 36 h, tested concentrations 200, 100, 50, 25, 10 μM
Method: Cells were grown in an appropriate media to 70 to 80% confluence and incubated in serum and growth factor free media for 24 h. Cells were detached by trypsin treatment, collected by centrifugation and resuspended in serum free media to a final concentration of 150,000 cells/mL. 400 μL of the cell suspension were loaded into a fibronectin coated insert for 24 well multidishes. 750 μL fully supplemented media were applied to the compartment under the insert. To both chambers the inhibitor was added at the intended concentration and the plates were incubated for 36 h at 37° C., 5% CO2. […] The resulting CyQuant assay solution was transferred to the cavities of a 96 well microtiter plate and the fluorescence signal was recorded in an appropriate reader. The CyQuant dye forms a highly fluorescent complex with DNA, thus the fluorescence signal is proportional to the number of cells that migrated through the membrane in the presence of the test compound (N^inh) A positive control (i.e., without a test compound in the growth media) was carried out according to the procedure described above, except that no test compound was added. The positive control fluorescent reading correlates with the number of cells that migrate through the membrane in the absence of inhibitor (N^+). […] The anti-migratory effect of a test compound is determined by the ratio (N^inh−N^−)/(N^+−N^−).

[2] = Mouse blood plasma stability; conditions: test period one hour
Method: The biological evaluation of the compounds (in terms of their ability to inhibit cell migration) was accomplished in a Boyden chamber cell migration assay. In this assay, mouse breast tumor cells (4T1 cells) or endothelial cells (HUVECs) are seeded on the upper chamber of a transwell insert. Growth factor-containing serum is added to the lower chamber.
In anticipation of subsequent in vivo evaluation of these compounds and others, preliminary metabolic stability studies were carried out. […] As a test of the ‘deactivation hypothesis’, the hydrolysis product of macrolactone 48 was prepared (Scheme 27) and tested for its activity against tumor cell migration.

[3] = system: mouse breast tumor cells (4T1 cells); test: Boyden chamber cell migration assay, 4T1; assay type: cell-based; conditions: Mus musculus, 4T1, read-out: IC50 value, chamber cell migration assay
[4] = reported by Imoto / Kosan; read-out: IC50 value, reported activity in a wound healing assay; cited from earlier work
[5] = system: adherent cells (e.g. KYSE-520 cells); test: Wound healing (scratch) assay, preliminary (Table 2); assay type: cell-based; conditions: 28 to 30 h, tested concentrations 200, 100, 50, 25, 10 μM
Method: The wound healing assay was performed based on the method described by Nakae et al. (Nakae et al., J. Antibiotics (2000), 53, 1130-1136). Briefly, adherent cells were grown in a suitable media to confluence (e.g. KYSE-520 cells in RPMI-1640 with 10% FBS). Cells were starved for 24 h in serum free media A scratch (ca. 0.5 mm) was applied and the cell layer was washed twice with PBS after removal of the media. Fresh, serum free media with the test compound at the desired concentration was added and the cells were incubated for 28 to 30 h at 37° C., 5% CO2. The scratch size was compared to that observed for cells exposed to 100 μM Migrastatin. Test compounds associated with a scratch size equal to or larger than that observed for cells exposed to 100 μM Migrastatin were deemed to have cell migration inhibitory activity at least equal to Migrastatin.

HUVEC = test: Tube formation assay; assay type: cell-based, human; conditions: HUVEC on matrigel, 16-18 h, tested concentrations 200, 100, 50, 25, 10 μM
Method: A protocol was designed based on the instructions from the provider (BD Bioscience, San Jose, Calif.). Briefly, wells of a 48 well culture dish were covert with 150 μL matrigel and the matrigel was gelatinized for 30 min at 37° C. A 80-90% confluent HUVEC (BD Bioscience, San Jose, Calif.) culture was trypsin treated, the detached cells were collected by centrifugation and resuspended in EGM-2 media (BD Bioscience, San Jose, Calif.). Cell concentration was adjusted to 100.000 cells/mL. 400 μL of the cell suspension were filled in the matrigel coated wells, and a solution of the inhibitor was added to the intended final concentration. The plates were incubated at 37° C. with 5% CO2 for 16-18 h. Media was removed, and the matrigel surface was washed twice with 500 μL PBS before cells were labeled with 250 μL 8 μM Calcein AM (Pierce, Rockford, Ill.) in PBS for 30 min at 37° C. After two additional washing steps (500 μL PBS) cells were visualized under an inverted microscope. Fluorescence was excited at 488 nm and recorded at 538 nm. The minimum effect concentration was defined as the minimal inhibitor concentration that caused a definite disturbance of the complexity of the formed tube network.

[6] = system: six solid human tumor cell lines and four liquid cancer cell lines; test: Chamber cell migration, various human cancer cells (overall statements); assay type: cell-based; conditions: migration inhibition
Method: Additional evaluation was conducted in a variety of human cancer cells and xenographs (See FIGS. 4-19). […] Unexpectedly, a very high selectivity between the various tumor cell lines was detected (Table 4 and FIG. 2). […] As stated above, non-transformed human cells such as HUVEC appear to be largely more resistant to the compounds. […] This was an unforeseen discovery, especially in light of the response observed for these compounds to the 4T1 mouse breast cancer cell line (previously reported in WO 2004/087672).
Cell migrations were assayed with 8 μm of microporous 6.5-mm transwell plates (Corning). 200 μl of 2×10^5 cells in serum-free RPMI1640 medium containing 0.5% BSA were added to the upper chamber and 600 μl of medium with 10% fetal bovine serum was added to the lower chamber. […] Cells migrated to the lower wells were collected and counted for liquid tumors, solid tumors were processed as previously described.^28 Data shown are representative of at least three experiments.

Compound: CO[C@H]1/C=C/CC/C=C/C(=O)OC([C@H](C)C(=O)CCCC2CC(=O)NC(=O)C2)/C(C)=C\[C@@H](C)[C@@H]1O (some centres unmarked) [Migrastatin (1), Migrastatin]
- IC50 (mouse 4T1 cell): 42 µM
- IC50 [1]: 200 µM
- metabolic stability in mouse blood plasma [2]: completely inert toward lactone opening
- IC50 [3]: 29 µM
- IC50 [4]: 29 µM
- Minimum effect concentration [5]: 100 µM
- Minimum effect concentration (HUVEC): 100 µM
- response of the human tumor cell lines tested [6]: did not respond well to any of the cell lines tested
